US20100286092A1, “BETA-LACTAMASE INHIBITORS” (priority 2007, published 2010)

Columns and labels:
Conditions in all cases: in the presence of a fixed amount (8 μg/mL) of Ceftazidime; CAMHB, 16-20 hours at 37° C.
[1] = tested on: E. cloacae expressing the Class C P99+; type: cell-based
Description: (§1) To determine the ability of test compounds to potentiate the inhibition of the growth of bacterial strains producing beta-lactamase enzymes, classic cell based screening assays were employed. Four bacteria strains producing beta-lactamase enzymes were used: K. pneumoniae expressing the Class A Extended Spectrum Beta-Lactamase (ESBL) CTX-M-15, E. coli expressing the Class A ESBL SHV-5, E. cloacae expressing the Class C P99+, and K. pneumoniae expressing the Class A carbapenemase KPC-2. In order to evaluate the ability of test compounds to inhibit beta-lactamase activity, Applicants used a modification of the broth microdilution assay. The assay was conducted in Cation Adjusted Mueller Hinton Broth (CAMHB, BD #212322, BD Diagnostic Systems, Sparks, Md.). Bacteria strains were grown for 3-5 hours in CAMBH broth. All four strains were grown in presence of 50 μg/mL ampicillin to ensure resistance is maintained. In the meantime, test compounds were diluted in DMSO to a 0.1 mg/mL stock. The compounds were added to a microtiter plate and were diluted in 2-fold serial dilutions in CAMHB in a final concentration range of 8 μg/mL to 0.015 μg/ml. An overlay of CAMHB containing a cephalosporin was added to the compounds at a final static concentration of 8 μg/ml. […] Each of these compound plates are made in quadruplicate, one for each bacteria strain. In addition to the titration of test compounds the MICs of a panel of cephalosporins is also tested to ensure the strains are behaving consistently from test to test. Once the test compound and cephalosporin are added the plates can be inoculated. Inocula are conducted according to CLSI broth microdilution method. After inoculation the plates are incubated for 16-20 hours at 37° C. then the Minimal Inhibitory Concentration (MIC) of the test compound is determined visually.
(§2) Using the methodology described above, examples of the current invention were evaluated for their ability to inhibit the growth of β-lactamase producing bacteria in the presence of a β-lactam antibiotic. […] NT=Not Tested.

[2] = tested on: E. coli expressing the Class A ESBL SHV-5; type: cell-based
Description: as §1, §2

[3] = tested on: K. pneumoniae expressing the Class A Extended Spectrum Beta-Lactamase (ESBL) CTX-M-15; type: cell-based
Description: as §1, §2

[4] = tested on: K. pneumoniae expressing the Class A carbapenemase KPC-2
Description: as §1, §2

Structure (SMILES)	MIC of example compound, E. cloacae P99 AmpC + 8 μg/mL CAZ [1]	MIC of example compound, E. coli SHV-5 + 8 μg/mL CAZ [2]	MIC of example compound, K. pneumoniae CTX-M-15 + 8 μg/mL CAZ [3]	MIC of example compound, K. pneumoniae KPC-2 + 8 μg/mL CAZ [4]
O=C(Cc1ccccc1)N[C@@H](Cc1cccc(C(=O)O)c1O)B(O)O [Example 10]	C (C represents an MIC of <1 μg/mL)	C (C represents an MIC of <1 μg/mL)	C (C represents an MIC of <1 μg/mL)	C (C represents an MIC of <1 μg/mL)
Nc1nc(CC(=O)N[C@@H](Cc2cccc(C(=O)O)c2O)B(O)O)cs1.O=CO [Example 39, (1R)-1-(2-Amino-thiazol-4-yl)-acetylamino-1-(3-carboxy-2-hydroxy)benzyl-methylboronic acid formate salt]	C (C represents an MIC of <1 μg/mL)	C (C represents an MIC of <1 μg/mL)	C (C represents an MIC of <1 μg/mL)	C (C represents an MIC of <1 μg/mL)
NCC(=O)N[C@@H](Cc1cccc(C(=O)O)c1O)B(O)O.O=CO [Example 41, (1R)-1-(2-aminoacetylamino)-2-(2-hydroxy-3-carboxyphenyl)ethyl-1-boronic acid formate salt]	A (A represents an MIC>8 μg/mL)	A (A represents an MIC>8 μg/mL)	A (A represents an MIC>8 μg/mL)	C (C represents an MIC of <1 μg/mL)
CCCCC(=O)N[C@@H](Cc1cccc(C(=O)O)c1O)B(O)O [Example 23, (1R)-1-(pentanoylamino)-2-(2-hydroxy-3-carboxyphenyl)ethyl-1-boronic acid]	C (C represents an MIC of <1 μg/mL)	C (C represents an MIC of <1 μg/mL)	C (C represents an MIC of <1 μg/mL)	C (C represents an MIC of <1 μg/mL)
O=C(CO)N[C@@H](Cc1cccc(C(=O)O)c1O)B(O)O [Example 19, (1R)-1-Hydroxyacetylamino-1-(3-carboxy-2-hydroxy)benzyl-methyl boronic acid]		A (A represents an MIC>8 μg/mL)	C (C represents an MIC of <1 μg/mL)	C (C represents an MIC of <1 μg/mL)
O=C(O)COc1cccc(CC(=O)N[C@@H](Cc2cccc(C(=O)O)c2O)B(O)O)c1 [Example 7, (1R)-1-[3-(carboxymethoxy)-phenyl]acetylamino-(3-carboxy-2-hydroxy)benzyl-methylboronic acid]		C (C represents an MIC of <1 μg/mL)	C (C represents an MIC of <1 μg/mL)	C (C represents an MIC of <1 μg/mL)
COc1ccc(OC)c(CC(=O)N[C@@H](Cc2cccc(C(=O)O)c2O)B(O)O)c1 [Example 17, (1R)-1-(2-(2,5-dimethoxyphenyl)-acetylamino)-2-(2-hydroxy-3-carboxyphenyl)ethyl-1-boronic acid]	C (C represents an MIC of <1 μg/mL)	A (A represents an MIC>8 μg/mL)	C (C represents an MIC of <1 μg/mL)	
Cl.NCCOc1cccc(CC(=O)N[C@@H](Cc2cccc(C(=O)O)c2O)B(O)O)c1 [Example 4, (1R)-1-[3-(2-amino)-ethoxy-phenyl]acetylamino-1-(3-carboxy-2-hydroxy)benzyl-methylboronic acid hydrochloride]	C (C represents an MIC of <1 μg/mL)	C (C represents an MIC of <1 μg/mL)	C (C represents an MIC of <1 μg/mL)	C (C represents an MIC of <1 μg/mL)
